The subject of one series is B. subtilis. Nature of the series: Spot-on-lawn MIC bioassay. In kind it is cell-based, B. subtilis EC 1524. The conditions noted are these: Bacillus subtilis, standard conditions, read-out: MIC. Here is the method:
(§1) Indicator strains were grown for 16–18 h in LB (5 mL) by inoculation from a single colony. An aliquot of the resulting culture (500 μL) was then used to inoculate LB (50 mL in 250 mL Erlenmeyer flasks), followed by orbital shaking at 250 rpm until they reached an OD600 of 0.3–0.4. These cultures were then diluted 1 : 10 with molten soft nutrient agar (SNA), before pouring into appropriately sized Petri dishes to set. Serial dilutions of the test compounds (from 256 μg mL^−1 to 1 μg mL^−1 plus an additional sample at 1000 μg mL^−1) were prepared in acetonitrile (ACN), and 4 μL of each sample was applied directly onto the SNA surface. Kanamycin (50 μg mL^−1), apramycin (50 μg mL^−1) or aureobasidin A (0.2 μg mL^−1) were used as positive controls, as appropriate, and ACN or water (4 μL) were used as negative controls. […] Experiments were carried out in at least triplicate for each strain.

A further series has as its system E. coli NR698. Nature of the series: Spot-on-lawn MIC bioassay. In kind it is cell-based. The conditions noted are these: Escherichia coli, NR698. Here is the method:
as §1

For another series, the system named is S. cerevisiae. The series can be described thus: Spot-on-lawn MIC bioassay. Format: cell-based, S. cerevisiae NCYC 2939. The conditions noted are these: Saccharomyces cerevisiae. As for the experimental part: as §1
For another series, the system named is E. coli BW25113. Nature of the series: Spot-on-lawn MIC bioassay. The conditions noted are these: for MIC: Escherichia coli. Format: cell-based. As for the experimental part:
as §1
(§2) The method was the same as for the antibacterial MIC assays described above, with the following modifications: for excess iron, Fe(NO3)3·9H2O stock (400 mM) was added to give a final concentration of 1.5 or 2.0 mM; for iron depletion, bipy stock (1 M) was added to give a final concentration of 150 μM. For MRSA, 1 was further diluted to 0.5 0.25 and 0.125 μg mL^−1 due to a decrease in MIC under excess iron conditions. The general effect of excess iron on the activity of alternative antibiotics was determined by performing a similar serial dilution of carbenicillin, kanamycin, streptomycin, nitrofurantoin and chloramphenicol in the presence of Fe^3+.

The subject of the next series is P. aeruginosa PA01. Nature of the series: Spot-on-lawn MIC bioassay. In kind it is cell-based. To be noted: for MIC: Pseudomonas aeruginosa. As for the experimental part:
as §1, §2

In the next series the test system is E. coli BW25113 Δ6. The series can be described thus: Spot-on-lawn MIC bioassay, TBDT knock-out mutant. In kind it is cell-based. The conditions noted are these: for MIC: Escherichia coli. Here is the method:
as §1, §2

The target in the next series is T1, EcThrRS (Escherichia coli, UniProt P0A8M3).
T1 construct: His6 (N); made in house; host or cells: E. coli NiCo21(DE3)
T1 sequence (P0A8M3 whole entry): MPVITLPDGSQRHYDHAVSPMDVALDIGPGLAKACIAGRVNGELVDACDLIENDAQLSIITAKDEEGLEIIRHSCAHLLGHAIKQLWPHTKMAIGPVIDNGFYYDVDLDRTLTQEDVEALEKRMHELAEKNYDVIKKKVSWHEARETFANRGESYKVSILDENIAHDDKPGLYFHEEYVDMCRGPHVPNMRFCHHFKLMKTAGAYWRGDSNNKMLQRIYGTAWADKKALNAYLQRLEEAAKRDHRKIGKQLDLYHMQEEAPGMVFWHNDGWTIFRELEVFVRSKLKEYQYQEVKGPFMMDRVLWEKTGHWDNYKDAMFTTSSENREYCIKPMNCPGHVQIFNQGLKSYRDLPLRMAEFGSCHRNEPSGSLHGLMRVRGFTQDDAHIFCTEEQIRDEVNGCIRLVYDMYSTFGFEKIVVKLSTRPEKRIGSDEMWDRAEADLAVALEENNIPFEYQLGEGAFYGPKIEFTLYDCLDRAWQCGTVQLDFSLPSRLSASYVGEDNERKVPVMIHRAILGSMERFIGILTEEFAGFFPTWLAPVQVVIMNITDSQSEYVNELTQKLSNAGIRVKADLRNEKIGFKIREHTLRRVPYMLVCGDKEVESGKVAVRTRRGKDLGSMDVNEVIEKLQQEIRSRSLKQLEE
The series can be described thus: Aminoacylation assay. In kind it is biochemical, E. coli. The conditions noted are these: enzyme 10 nM. Here is the method: To measure the effects of 1–4 on ThrRS canonical tRNA charging activity, an assay modified from that reported by Ruan et al.[53] was used, where active enzyme was incubated with its necessary substrates and its activity measured using ^14C labeled Thr and a liquid scintillation counter. Purified ThrRS protein (10 nM) was pre-incubated with varying concentrations of compounds 1–4 or ACN for 10 min. After pre-incubation, ThrRS samples were added to a master reaction mixture with the final component concentrations of HEPES (100 mM, pH 7.0), ATP (4 mM), MgCl2 (10 mM), L-[U-^14C]threonine (50 μM, Moravek Inc.), and tRNA^Thr (5 μM). This mixture was incubated at room temperature for 10 min, with samples taken at 1, 2.5, 5, and 10 min. At each time point, a 7 μL aliquot was spotted onto a 5% trichloroacetic acid (TCA) presoaked 3 MM Whatman paper (Cytiva) squares (repeated in triplicate). After allowing the spots to dry, the Whatman paper was washed three times with 5% TCA, and once with 95% EtOH. The Whatman paper was dried and the counts on each square of paper analyzed using a Tri-Carb 2910 TR liquid scintillation counter using Hydrofluor Liquid Scintillation Fluid (National Diagnostics). To calculate IC50 values, fractional initial velocities (velocity of inhibited reaction/velocity in the absence of inhibitor) were plotted against the log of 1 concentration and then fitted to eqn (1), using GraphPad Prism.1 [drawing 1]

A short description of series [1]: Hydrolysis of the β-lactone in HEPES buffer monitored by HPLC. To be noted: for hydrolysis of β-lactone (in words): 30 min, no Fe^3+. Format: physicochemical. As for the experimental part: Hydrolysis of 1–4 was analysed on an Agilent 1290 system fitted with an Agilent LC/MSD MS spectrometer. A Kinetex XB-C18, 100 × 4.6 mm, 5 μM column (Phenomenex) was used with a gradient elution: ACN/0.1% (v/v) FA (H2O) gradient from 5/95 for 0–0.5 min, 5/95 to 98/2 0.5–12 min, 98/2 for 12–13 min, gradient to 5/95 13–13.5 min and 5/95 for 13.5–15 min. The flow rate was 0.6 mL min^−1 and the injection volume of each sample 5 μL. DAD signals were analysed at 270 nm, with a bandwidth of 4 nm. MS were recorded in positive mode using an atmospheric pressure ionisation electrospray (API-ES) ion source with a capillary voltage of 3000 V. The drying gas temperature was 350 °C with a flow rate of 12 L min^−1. The scan parameters were: mass range = 200–1500; fragmentor = 70; gain EMV = 1.0; threshold = 150; step-size = 0.10. Data were analysed with Agilent ChemStation software.
Five solutions of HEPES buffer (111 mM) were prepared at pH 6.0, 6.5, 7.0, 7.5 and 8.0 respectively. A further five solution of HEPES buffer (111 mM) with Fe(NO3)3.9H2O ([…]) were also prepared at pH 6.0, 6.5, 7.0, 7.5, 8.0 respectively. Stock solutions of 1–4 (10 mM) were prepared in DMSO. For each hydrolysis experiment, stock solution of 1–4 (10 μL) was added the HEPES buffer (90 μL) or the HEPES + Fe(NO3)3.9H2O buffer (90 μL), to give final concentrations of HEPES (100 mM), 1–4 (1 mM) and Fe^3+ (0 or 1 mM). The reaction mixtures were shaken using a bench top vortex and left to stand for 30 min, after which the samples were analysed by HPLC using the Analytical HPLC method. All stock solutions of 1–4 were tested at every pH, with and without Fe^3+ and all experiments were repeated in triplicate.

The subject of a further series is Streptococcus pyogenes. Also on record: method as in doi:10.1021/jo00350a010. The conditions noted are these: dosed systemically; cited from earlier work.

In brackets after ≈: the same amount, converted by molar mass. Like-named read-outs stand apart in the source and are kept apart here.

By IC50 is commonly meant the concentration at which inhibition is half-maximal. For `O=C(N[C@@H]1C(=O)O[C@@H]1Cc1ccc([N+](=O)[O-])cc1)c1cccc(O)c1O` [compound 1, Obafluorin], the MIC was 4 µg/mL (≈ 11.2 µM) with B. subtilis; 4 µg/mL (≈ 11.2 µM) against E. coli NR698; 1000 µg/mL (≈ 2790 µM) in the series on S. cerevisiae (Figure S12 legend, read-out: Minimum inhibitory concentration); 1000 µg/mL (≈ 2790 µM) with S. cerevisiae (standard conditions, read-out: MIC); 256 µg/mL (≈ 714 µM) with E. coli BW25113 (BW25113, iron depleted, +bipy (150 μM)); not above 1 µg/mL with E. coli BW25113 (BW25113, iron replete, +Fe^3+ (2 mM), read-out: MIC). The MIC against E. coli BW25113 (BW25113, standard conditions) was 256 µg/mL (≈ 714 µM); in the series with P. aeruginosa PA01 (PA01, +Fe^3+ (1.5 mM) in the media), not above 1 µg/mL; with P. aeruginosa PA01 (PA01, spot-on-lawn, standard conditions), 128 µg/mL (≈ 357 µM); with E. coli BW25113 Δ6 (BW25113, iron replete, +Fe^3+ (2 mM)), not above 1 µg/mL; against E. coli BW25113 Δ6 (BW25113, standard conditions), 256 µg/mL (≈ 714 µM). Also, the “decrease in MIC upon addition of Fe^3+” value in the series with E. coli BW25113 (with vs without Fe^3+) and in the series with E. coli BW25113 Δ6 (with vs without Fe^3+) was not below 256 fold each time. Also, the “decrease in MIC with added Fe^3+” value in the series with P. aeruginosa PA01 (with vs without Fe^3+ in growth agar) is recorded as not below 128 fold. Moreover, the “concentration at which complete inhibition was observed” value at EcThrRS was “around 100 nM”. For the same compound, at EcThrRS (10 min preincubation with compound, read-out: IC50), the IC50 stood at 35 ± 4 nM. In addition, the “effect of added Fe^3+ on hydrolysis (in words)” value in series [1] (Fe^3+ 1 mM, HEPES 100 mM, pH 6.0–8.0, 30 min) was “protected 1 against hydrolysis at all pH values”. For the same compound, the “hydrolysis of β-lactone (in words)” value in series [1] (pH 6.0, HEPES 100 mM) is “little change”; in series [1] (pH 8.0, HEPES 100 mM), “majority of 1 in the hydrolysed form”. Moreover, the “protection of infected mice (in words)” value in the series on Streptococcus pyogenes is on record as “can protect mice”. In addition, the “toxicity in mice (in words)” value with Streptococcus pyogenes is listed as “no observable toxicity”.

The record behind these values is paper PMC10619133, “The catechol moiety of obafluorin is essential for antibacterial activity” (RSC Chemical Biology, 2023).
